Results as given in patent publication US4616003A, “N^6 -dihydroxypropyladenosines” (Warner-Lambert Company, priority 1985, dated 1986).
Read-outs that look alike come from different tables or passages of the source.

How the values were obtained:
adenosine A2 receptor = target: T1, adenosine A2 receptor (Rattus norvegicus, UniProt P30543); assay: Adenosine A2 receptor binding (RBA-2), displacement of [3H]NECA
T1 construct: Brains were thawed and then kept on ice while the striata were dissected out; tissue Pel-Freez (Rogers, Ark.); host or cells: rat striatum (Sprague-Dawley brains; Long-Evans gave essentially identical results)
T1 sequence (P30543 whole entry): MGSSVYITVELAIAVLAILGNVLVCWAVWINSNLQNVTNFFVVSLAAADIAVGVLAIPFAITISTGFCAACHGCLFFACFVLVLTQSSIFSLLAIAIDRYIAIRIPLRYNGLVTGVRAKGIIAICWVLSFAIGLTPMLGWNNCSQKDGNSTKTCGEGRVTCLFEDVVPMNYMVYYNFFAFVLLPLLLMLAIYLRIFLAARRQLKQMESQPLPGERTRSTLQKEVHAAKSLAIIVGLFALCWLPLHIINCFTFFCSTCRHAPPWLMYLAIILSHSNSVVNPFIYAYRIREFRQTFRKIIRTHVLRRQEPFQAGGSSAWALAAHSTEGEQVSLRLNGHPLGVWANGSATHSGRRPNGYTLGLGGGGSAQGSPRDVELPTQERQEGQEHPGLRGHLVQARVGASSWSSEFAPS
Method: Brains from 200-500 g mixed sex Sprague-Dawley rats were purchased from Pel-Freez (Rogers, Ark.). […] Brains were thawed and then kept on ice while the striata were dissected out. […] The suspension was centrifuged at 50,000 xg for ten minutes, the supernatant discarded, the pellet resuspended in 10 vol ice-cold Tris as above, recentrifuged, resuspended at 1 g/5 ml, and stored in plastic vials at -70° C. […] When needed, tissue was thawed at room temperature, disrupted in a Polytron, and kept on ice until used.
All incubations were for 60 minutes at 25° C. in 12×75 mm glass tubes containing 1 ml Tris with 5 mg original tissue weight of rat weight of rat striatal membranes, 4 nM [^3 H]-N-ethyl adenosine-5'-carboxamide ([^3 H]NECA), 50 nM N^6 -cyclopentyladenosine (to eliminate A1 receptor binding), 10 mM MgCl2, 0.1 units/ml of adenosine deaminase and 1% dimethylsulfoxide. N^6 -Cyclopentyladenosine was dissolved at 10 mM in 0.02N HCl and diluted in Tris. […] Test compounds were dissolved at 10 mM in dimethylsulfoxide on the same day as the experiment, and diluted in dimethylsulfoxide to 100× the final incubation concentration. […] [^3 H]NECA was diluted to 40 nM in Tris. The membrane suspension (5 mg/0.79 ml) contained sufficient MgCl2 and adenosine deaminase to give 10 mM and 0.1 units/ml, respectively, final concentration in the incubation. […] After all additions, the rack of tubes was vortexed, and the tubes were then incubated for 60 min at 25° C. in a shaking water bath. The rack of tubes was vortexed an additional time halfway through the incubation.
Incubations were terminated by filtration through 2.4 cm GF/B filters under reduced pressure. Each tube was filtered as follows: the contents of the tube were poured onto the filter, 4 ml of ice-cold Tris were added to the tube and the contents poured onto the filter, and the filter was washed twice with 4 ml of ice-cold Tris. The filtration was complete in about twelve seconds.
Nonspecific binding was defined as binding in the presence of 100 μM N^6 -cyclopentyladenosine, and specific binding was defined as total binding minus nonspecific binding. The IC50 was calculated by weighted nonlinear least squares curve-fitting to the mass-action equation. [formula] where Y is cpm bound
T is cpm total binding without drug
S is cpm specific binding without drug
D is the concentration of drug and
K is the IC50 of the drug
Weighting factors were calculated under the assumption that the standard deviation was proportional to the predicted value of Y. Nonspecific binding was treated as a very large (infinite) concentration of drug in the computer analysis.

adenosine A1 receptor = target: T2, adenosine A1 receptor (Rattus norvegicus, UniProt P25099); assay: Adenosine A1 receptor binding (RBA-1), displacement of [3H]-CHA
T2 construct: Whole brain minus cerebellum and brainstem from male Long Evans rats (150-200 g) was homogenized; from tissue; host or cells: rat whole brain minus cerebellum and brainstem, male Long Evans
T2 sequence (P25099 1-326): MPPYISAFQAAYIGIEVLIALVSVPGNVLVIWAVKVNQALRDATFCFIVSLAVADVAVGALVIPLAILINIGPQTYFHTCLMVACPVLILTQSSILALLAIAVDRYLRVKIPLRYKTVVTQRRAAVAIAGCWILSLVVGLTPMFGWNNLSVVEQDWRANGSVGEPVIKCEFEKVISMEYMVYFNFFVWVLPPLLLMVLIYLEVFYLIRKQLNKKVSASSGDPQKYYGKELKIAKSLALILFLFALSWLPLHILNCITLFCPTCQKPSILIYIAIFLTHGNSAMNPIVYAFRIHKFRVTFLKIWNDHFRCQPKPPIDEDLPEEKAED
Method: Whole brain minus cerebellum and brainstem from male Long Evans rats (150-200 g) was homogenized in 30 volumes of ice-cold 0.05M Tris-HCl buffer pH 7.7 using a Brinkman Polytron PT-10, (setting number 6 for 20 seconds) and centrifuged for ten minutes at 20,000×g (Sorvall RC-2), 4° C. The supernatant was discarded, and the pellet was resuspended and centrifuged as before. The pellet was resuspended in 20 ml Tris-HCl buffer containing two International Units/ml of adenosine deaminase (Sigma type III from calf intestinal mucosa), incubated at 37° C. for 30 minutes, then subsequently at 0° C. for ten minutes. The homogenate was again centrifuged, and the final pellet was resuspended in ice-cold 0.05M Tris-HCl buffer pH 7.7 to a concentration of 20 mg/ml original wet tissue weight and used immediately.
Tissue homogenate (10 mg/ml) was incubated in 0.05M Tris-HCl buffer pH 7.7 containing 1.0 nM [^3 H]-N^6 -cyclohexyladenosine [^3 H]-CHA) with or without test agents in triplicate for one hour at 25° C. Incubation volume was 2 ml. Unbound [^3 H]-CHA was separated by rapid filtration under reduced pressure through Whatman glass fiber (GF/B) filters. The filters were rinsed three times with 5 ml of ice cold 0.05M Tris-HCl buffer pH 7.7. The radio-labeled ligand retained on the filter was measured by liquid scintillation spectrophotometry after shaking the filters for one hour or longer on a mechanical shaker in 10 ml of Beckman Ready-Solv HP scintillation cocktail.
Nonspecific binding was defined as the binding which occurred in the presence of 1 mM theophylline. […] The Scatchard plot was calculated by linear regression of the line obtained by plotting the amount of radioligand bound (pmoles/gram of tissue) versus [formula] Since the amount of radioligand bound was a small fraction of the total amount added, free radioligand was defined as the concentration (nM) of radioligand added to the incubation mixture. The Hill coefficient was calculated by linear regression of the line obtained by plotting the log of the bound radioligand vs the log of the [formula] The maximal number of binding sites (Bmax) was calculated from the Scatchard plot.

Swiss-Webster male mice [1] = assay: Mouse Activity and Screen Test (MAST): inhibition of spontaneous locomotor activity; type: in vivo; details: 1 hour prior to testing
Method: Nine unfasted Swiss-Webster male mice weighing 20-30 g are equally divided into three groups for each drug dose to be tested. That is, data for each dose level was generated by three separate groups of three mice each. A minimum of three dose levels (10, 30, and 100 mg/kg) are tested for each drug. Treatments are administered intraperitoneally one hour prior to testing. All dosages are calculated as parent compound and given in volumes of 10 ml/kg. Compounds are dissolved or suspended in 0.2% Methocel. Control animals are injected with Methocel. Immediately following the screen test, the final phase of testing is initiated by placing each group of three mice in one actophotometer (Life Sciences, 22, 1067-1076, 1978). The actophotometer consists of a cylindrical chamber whose center is occupied by another cylinder which contains the illumination for six photocells located on the perimeter of the chamber. Six light-beam interruptions equal one count. Locomotor activity is recorded by computer at ten minute intervals for 60 minutes. Data: The data obtained from the screen test are expressed as percent of mice falling off the screen. Data derived from locomotor activity of drug treated mice are compared to the activity of vehicle treated animals and are expressed as percent inhibition of spontaneous locomotion. All percentages reported for inhibition of locomotion (LI) are based upon data accumulated for one hour. Both phases of testing are graded: A=60-100%; C=31-59%; and N=0-30%. An overall dose rating is obtained by the following criteria: […]

Swiss-Webster male mice [2] = assay: Mouse Activity and Screen Test (MAST): screen test failure; type: in vivo; details: 1 hour prior to testing
Method: Nine unfasted Swiss-Webster male mice weighing 20-30 g are equally divided into three groups for each drug dose to be tested. That is, data for each dose level was generated by three separate groups of three mice each. A minimum of three dose levels (10, 30, and 100 mg/kg) are tested for each drug. Treatments are administered intraperitoneally one hour prior to testing. All dosages are calculated as parent compound and given in volumes of 10 ml/kg. Compounds are dissolved or suspended in 0.2% Methocel. Control animals are injected with Methocel. Testing: A two part testing procedure is started one hour postinjection. First, the screen test (ST) is performed (see Pharmac. Biochem. Behav. 6, 351-353, 1977). Briefly this test consists of placing mice on individual wire screens which are then rotated 180 degrees at the start of a 60 second observation period. The number of mice falling off the inverted screen is recorded. Data: The data obtained from the screen test are expressed as percent of mice falling off the screen. Data derived from locomotor activity of drug treated mice are compared to the activity of vehicle treated animals and are expressed as percent inhibition of spontaneous locomotion. All percentages reported for inhibition of locomotion (LI) are based upon data accumulated for one hour. Both phases of testing are graded: A=60-100%; C=31-59%; and N=0-30%. An overall dose rating is obtained by the following criteria: […]

[3] = 1.0 nM [3H]-CHA, rat whole brain minus cerebellum and brainstem, read-out: RBA-1 (IC50, adenosine A1 receptor affinity)

Structure (SMILES)	IC50 (adenosine A2 receptor) [µM]	IC50 (adenosine A1 receptor) [µM]	Inhibition of Mouse Locomotor Activity (Swiss-Webster male mice [1]; 10 mg/kg i.p.) [%]	Inhibition of Mouse Locomotor Activity (Swiss-Webster male mice [1]; 30 mg/kg i.p.) [%]	Inhibition of Mouse Locomotor Activity (Swiss-Webster male mice [1]; 100 mg/kg i.p.) [%]	Screen Test Failure (Swiss-Webster male mice [2]; 10 mg/kg i.p.) [%]	Screen Test Failure (Swiss-Webster male mice [2]; 30 mg/kg i.p.) [%]	Screen Test Failure (Swiss-Webster male mice [2]; 100 mg/kg i.p.) [%]	IC50 (adenosine A2 receptor; 4 nM [3H]NECA, 50 nM N6-cyclopentyladenosine, rat striatal membranes, read-out: RBA-2 (IC50, adenosine A2 receptor affinity)) [µM]	IC50 (adenosine A1 receptor; [3]) [µM]	Inhibition of Mouse Locomotor Activity (Swiss-Webster male mice [1]; 3.0 mg/kg i.p.) [%]	Screen Test Failure (Swiss-Webster male mice [2]; 3.0 mg/kg i.p.) [%]	inhibition at 100 µM (adenosine A2 receptor; at 1 × 10^-4 M, read-out: RBA-2 Inhib) [%]
OC[C@H](O)CNc1ncnc2c1ncn2[C@@H]1O[C@H](CO)[C@@H](O)[C@H]1O [Example 2, (R)-N^6-[2,3-Dihydroxypropyl]adenosine]	11	0.0078	100	100	100	100	100	100	–	–	–	–	–
CC1(C)OC[C@H](CNc2ncnc3c2ncn3[C@@H]2O[C@H](CO)[C@@H](O)[C@H]2O)O1 [Example 6, (S)-N^6-[2,3-Dihydroxypropylisopropylidene]adenosine]	–	–	47	71	–	0	0	–	20	0.94	26	0	–
C[C@H]1O[C@@H](n2cnc3c(NCC4COC(C)(C)O4)ncnc32)[C@H](O)[C@@H]1O (stereo partly drawn) [Example 7, (R,S)-N^6-[2,3-Dihydroxypropyl-isopropylidine]-5'-deoxyadenosine]	–	–	18	69	–	0	0	–	–	8.8	13	11	23
CC(C)CC(=O)OCC(CNc1ncnc2c1ncn2[C@@H]1O[C@H](COC(=O)CC(C)C)[C@@H](OC(=O)CC(C)C)[C@H]1OC(=O)CC(C)C)OC(=O)CC(C)C (stereo partly drawn) [Example 11, N-6[2,3-Dihydroxypropyl-2,3-di-O-isovaleroyl]-2',3',5'-tri-O-isovaleroyl adenosine]	–	–	91	79	–	55	100	–	–	–	59	22	–
